9 compounds from PubChem BioAssay (NCI) can be followed below.

Among the test systems are SN12C renal; HS 578T breast; HOP-62 NSCLC; SK-MEL-2 melanoma; HT29 colon; OVCAR-5 ovarian; OVCAR-4 ovarian; NCI-H23 lung; MALME-3M melanoma; MCF7 breast.
What all share (assay): DTP human tumour cell line panel, 48 h

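In this assay, cells in 96-well plates receive the compound at five concentrations for 48 hours. Endpoints are linearly interpolated between the surrounding concentrations. GI50 = concentration required for 50% inhibition of growth. Definition used: TGI = concentration required for complete inhibition of growth.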

As a reminder, the GI50 is the concentration that inhibits growth by half. As a reminder, the TGI is the concentration giving total growth inhibition. Read a high TGI as less potent growth arrest.

Consider `Cc1cc2c3c([n+](C)c4ccc(F)cc4c3c1)-c1cc(F)ccc1N2C`, for which the GI50 with SN12C renal is 2340 nM; in the experiment on HS 578T breast it was 2400 nM; in the experiment on HOP-62 NSCLC, 9.84 µM; in the experiment with SK-MEL-2 melanoma, 10.9 µM; in the experiment with HT29 colon it was 33.2 µM; in the experiment with OVCAR-5 ovarian, more than 100000 nM. In addition, the GI50 is 22.1 µM in the experiment with OVCAR-4 ovarian, 9.46 µM in the experiment on NCI-H23 lung, 4.19 µM in the experiment on MALME-3M melanoma and 14300 nM in the experiment with MCF7 breast. Moreover, the TGI in the experiment with SN12C renal was 23.5 µM; in the experiment on HS 578T breast it was 9.77 µM; in the experiment on HOP-62 NSCLC it was more than 100 µM; with SK-MEL-2 melanoma, 28.6 µM; in the experiment on HT29 colon it was more than 100 µM; with OVCAR-5 ovarian it was more than 100 µM. Besides, the TGI is more than 100 µM in the experiment on OVCAR-4 ovarian, 68.6 µM with NCI-H23 lung, 17.2 µM in the experiment with MALME-3M melanoma and 44.6 µM in the experiment on MCF7 breast.
Consider `Cc1c(Cl)cccc1NC(=O)c1sc2nc3c(cc2c1N)C(=O)CCC3`, for which the GI50 is 124 nM in the experiment on SN12C renal; 47.9 nM with HS 578T breast; 0.102 µM in the experiment with HOP-62 NSCLC; 0.044 µM in the experiment with SK-MEL-2 melanoma; 0.0445 µM in the experiment on HT29 colon; 283 nM in the experiment with OVCAR-5 ovarian. Further, the GI50 with OVCAR-4 ovarian was 0.569 µM; with NCI-H23 lung it was 0.137 µM; in the experiment with MALME-3M melanoma it was 0.0363 µM; in the experiment on MCF7 breast, 45.2 nM. Moreover, the TGI in the experiment on SN12C renal is more than 100 µM; in the experiment on HS 578T breast, more than 58.2 µM; in the experiment on HOP-62 NSCLC, 29.8 µM; with SK-MEL-2 melanoma it was more than 56 µM; with HT29 colon, more than 33.4 µM; in the experiment with OVCAR-5 ovarian it was more than 100 µM. Further, the TGI is more than 84.7 µM in the experiment on OVCAR-4 ovarian, more than 100 µM in the experiment with NCI-H23 lung, more than 100 µM in the experiment on MALME-3M melanoma and more than 100 µM in the experiment on MCF7 breast.
For the compound `Cc1ccc(N=Nc2c(O)ccc3n[nH]nc23)cc1`, the GI50 in the experiment with SN12C renal was 17000 nM; with HS 578T breast it was 10900 nM; in the experiment with HOP-62 NSCLC, 28 µM; with SK-MEL-2 melanoma it was 19 µM; in the experiment on HT29 colon, 31.8 µM; in the experiment on OVCAR-5 ovarian it was 43500 nM. The GI50 with OVCAR-4 ovarian is 9.3 µM; in the experiment on NCI-H23 lung, 5.65 µM; with MALME-3M melanoma, 8.17 µM; in the experiment on MCF7 breast, 9250 nM. The TGI is more than 100 µM in the experiment with SN12C renal; 58.4 µM in the experiment on HS 578T breast; more than 100 µM in the experiment on HOP-62 NSCLC; 59.4 µM in the experiment on SK-MEL-2 melanoma; more than 100 µM in the experiment with HT29 colon; more than 100 µM in the experiment with OVCAR-5 ovarian. The TGI in the experiment with OVCAR-4 ovarian was more than 100 µM; in the experiment on NCI-H23 lung, 38.3 µM; in the experiment with MALME-3M melanoma it was 48 µM; in the experiment with MCF7 breast, 97.5 µM.
With `Cc1nn(Cc2ccccc2)cc1C(=O)Nc1sc2c(c1C(N)=O)CCC(=O)C2`, the GI50 with SN12C renal is 2610 nM; in the experiment with HS 578T breast, 2510 nM; with HOP-62 NSCLC, 2.45 µM; with SK-MEL-2 melanoma it was 2.12 µM; in the experiment with HT29 colon, 2.27 µM; in the experiment on OVCAR-5 ovarian it was 1920 nM. The GI50 was 1.47 µM with OVCAR-4 ovarian, 2.52 µM with NCI-H23 lung, 1.89 µM in the experiment with MALME-3M melanoma and 2480 nM in the experiment on MCF7 breast. Further, the TGI is 7.74 µM with SN12C renal; 9.71 µM in the experiment on HS 578T breast; more than 100 µM in the experiment with HOP-62 NSCLC; 5.2 µM with SK-MEL-2 melanoma; 6.58 µM with HT29 colon; 4.3 µM in the experiment with OVCAR-5 ovarian. Also, the TGI was 3.45 µM with OVCAR-4 ovarian, 7.22 µM in the experiment with NCI-H23 lung, 3.79 µM in the experiment on MALME-3M melanoma and 7.59 µM in the experiment with MCF7 breast.
As for `Cn1c2c(c3ccccc3c1=O)C(=O)c1ccccc1-2`, the TGI in the experiment with SN12C renal, in the experiment with HS 578T breast, in the experiment on HOP-62 NSCLC, with SK-MEL-2 melanoma, with HT29 colon and with OVCAR-5 ovarian was more than 100 µM in each case. Besides, the TGI in the experiment with OVCAR-4 ovarian, in the experiment on NCI-H23 lung, in the experiment with MALME-3M melanoma and with MCF7 breast was more than 100 µM throughout.
For `Cc1cc(N(CCC#N)CCC#N)ccc1/C=C(\NC(=O)/C=C/c1ccccc1)C(=O)Nc1ccc(Cl)cc1`, the TGI in the experiment with SN12C renal, in the experiment on HS 578T breast, in the experiment on HOP-62 NSCLC, in the experiment on SK-MEL-2 melanoma, with HT29 colon and in the experiment on OVCAR-5 ovarian was more than 100 µM each time. For the same compound, the TGI was more than 100 µM with OVCAR-4 ovarian, more than 100 µM in the experiment with NCI-H23 lung, more than 50.9 µM in the experiment with MALME-3M melanoma and more than 100 µM with MCF7 breast.
Regarding `Cc1c(NC(=O)Nc2c(Cl)cccc2Cl)c(=O)n(-c2ccccc2)n1C`, the TGI in the experiment with SN12C renal, in the experiment on HS 578T breast, with HOP-62 NSCLC, in the experiment with SK-MEL-2 melanoma, in the experiment on HT29 colon and with OVCAR-5 ovarian was more than 100 µM each time. In addition, the TGI in the experiment with OVCAR-4 ovarian, with NCI-H23 lung, in the experiment on MALME-3M melanoma and in the experiment on MCF7 breast was more than 100 µM throughout.
Take `Cc1ccnc2c(NC(C)CCCN)cc(O)c(O)c12` (stereo not given): the GI50 is 2860 nM with SN12C renal; 6260 nM in the experiment on HS 578T breast; 26.1 µM in the experiment with HOP-62 NSCLC; more than 100 µM in the experiment with SK-MEL-2 melanoma; 8.07 µM in the experiment with HT29 colon; 13100 nM in the experiment with OVCAR-5 ovarian. Also, the GI50 was 3.11 µM with OVCAR-4 ovarian, 3.98 µM in the experiment with NCI-H23 lung, 19.4 µM in the experiment with MALME-3M melanoma and 1970 nM in the experiment on MCF7 breast. Also, the total growth inhibition concentration (TGI) in the experiment with SN12C renal was 13 µM; in the experiment with HS 578T breast, 43.1 µM; in the experiment with HOP-62 NSCLC it was more than 100 µM; in the experiment with SK-MEL-2 melanoma, more than 100 µM; with HT29 colon, 51.8 µM; in the experiment on OVCAR-5 ovarian, 40.7 µM. Besides, the concentration for total growth inhibition (TGI) in the experiment on OVCAR-4 ovarian was 10.1 µM; in the experiment with NCI-H23 lung, 27.3 µM; in the experiment on MALME-3M melanoma, 52.9 µM; in the experiment with MCF7 breast it was 5.9 µM.
With `COc1c(B(O)O)cccc1-c1nc2ccc3[nH]ncc3c2c2c1CCCC2`, the GI50 with SN12C renal was 1770 nM; with HS 578T breast, 62.2 nM; with HOP-62 NSCLC, 1.31 µM; with SK-MEL-2 melanoma it was 3.4 µM; in the experiment with HT29 colon, 3.17 µM; in the experiment on OVCAR-5 ovarian, 2450 nM. For the same compound, the GI50 with OVCAR-4 ovarian was 4.23 µM; in the experiment with NCI-H23 lung, 2.48 µM; in the experiment with MALME-3M melanoma, 3.39 µM; in the experiment on MCF7 breast, 2040 nM. Also, the TGI in the experiment with SN12C renal amounted to 42.7 µM; in the experiment on HS 578T breast, 7.92 µM; in the experiment with HOP-62 NSCLC, 19.6 µM; in the experiment on SK-MEL-2 melanoma, 8.78 µM; with HT29 colon it was 16.4 µM; with OVCAR-5 ovarian, 25.2 µM. Further, the TGI in the experiment on OVCAR-4 ovarian was determined as 27.1 µM; with NCI-H23 lung, 9.28 µM; in the experiment on MALME-3M melanoma it was 6.86 µM; in the experiment with MCF7 breast it was 13 µM.
